# Laboratory results reported in publication PMC7349888, “Synthesis and Evaluation of Dodecaboranethiol Containing Kojic Acid (KA-BSH) as a Novel Agent for Boron Neutron Capture Therapy” (Cells, 2020).
# Where “and” joins values, the source holds several entries; their conditions need not be identical. Equal values may be shown once.
# Key:
# F98 glioma bearing rats = assay: Biodistribution in F98 glioma bearing rats (ICP-AES); type: in vivo, rat; settings: iv
# From the text: All animal experimental procedures were approved by the Animal Use Review Board and Ethical Committee of Osaka Medical College (No. 25092, 28 October 2015) and Kyoto University Research Reactor Institute (KURRI, No. 25030-13, 1 April 2015), and performed following the Guide for the Care and Use of Laboratory Animals. Eight-week-old, male Fischer 344 rats weighing between 200 and 250 g were used (Japan SLC, Inc. Shizuoka, Japan). Rats were anesthetized with an intraperitoneal (ip) injection of a mixture of medetomidine 0.15 mg, midazolam 2 mg, and butorphanol 2.5 mg/kg body weight (bw). The head of each rat was fixed with a stereotactic frame (Model 900; David Kopf Instruments, Tujunga, CA, USA). The scalp was incised at the midline and a small burr hole was drilled into the skull (1 mm posterior and 4 mm right-lateral to the bregma), using an electric drill. And then, F98 glioma cells were injected into the brain using a 25 µL Hamilton microsyringe with a 26-gauge needle (model 1700 RN, Hamilton Bonaduz AG, Bonaduz, Switzerland). The needle was inserted at a 5 mm depth from the skull and F98 cells were diluted in 10 µL of DMEM containing low-gelling temperature agarose at a concentration of either 10^3 for therapeutic experiments or 10^5 cells for biodistribution experiments. They were injected over 30 s using an automatic infuser pump. The needle entry hole was immediately sealed with bone wax and the incised scalp was closed with 3-0 silk sutures (Ethicon, North Ryde, NSW). After surgery, all animals were given atipamezole hydrochloride (0.15 mg/kg bw, ip).
# Biodistribution studies were performed in Fischer rats bearing intracerebral implants of F98 rat glioma cells. 10–13 days after tumor implantation of 10^5 F98 glioma cells, when signs of a progressively growing tumor were evident (weight loss, lethargy, hunching, and ataxia), biodistribution studies were initiated at which time the animals had tumors weighing 90–180 mg. […] To compare its biodistribution with that of BPA or BSH, another group of rats received an iv injection of BPA at a concentration of 10 mg ^10B/kg bw or BSH at a concentration of 30 mg ^10B/kg bw. Biodistribution was determined 1 and 3 h after termination of iv injection. Animals were euthanized by an overdose of sevoflurane following which tumors and normal tissues, consisting of ipsilateral brain, contralateral brain, blood, heart, lung, liver, spleen, kidney, skin, and muscle, were removed and weighed for ^10B determination by ICP-AES.
# F98 rat glioma cells = assay: Cell viability assay (WST-8) in F98 cells; type: cell-based; settings: WST-8 test, read-out: IC50 (cytotoxicity)
# Protocol: The cytotoxicity of KA-BSH was assayed using the water soluble tetrazolium (WST)-8 assay with a cell-counting kit (Wako Pure Chemicals, Osaka, Japan) following a modified version of the manufacturer-provided protocols. Relative cell survival was calculated according to Equation (1):(1) Relative cell survival (%)=absorbance value of compound treated well/absorbance value of untreated well×100
substance,measurement,setting,value
S-(2-(5-hydroxy-4-oxo-4H-pyran-2-yl) methyl) Thioundecahydro-Closo- Dodecaborate (2-) Disodium Salt [KA-BSH],"10B concentration, Blood","F98 glioma bearing rats; 10 mg 10B/kg, 1 h",4.71 µg 10B/g
same,"10B concentration, Contralateral brain","F98 glioma bearing rats; 10 mg 10B/kg, 1 h",0.24 µg 10B/g
same,"10B concentration, Heart","F98 glioma bearing rats; 10 mg 10B/kg, 1 h",1.18 µg 10B/g
same,"10B concentration, Ipsilateral brain","F98 glioma bearing rats; 10 mg 10B/kg, 1 h",0.29 µg 10B/g
same,"10B concentration, Liver","F98 glioma bearing rats; 10 mg 10B/kg, 1 h",5.15 µg 10B/g
same,"10B concentration, Lung","F98 glioma bearing rats; 10 mg 10B/kg, 1 h",4.31 µg 10B/g
same,"10B concentration, Muscle","F98 glioma bearing rats; 10 mg 10B/kg, 1 h",0.63 µg 10B/g
same,"10B concentration, Skin","F98 glioma bearing rats; 10 mg 10B/kg, 1 h",1.79 µg 10B/g
same,"10B concentration, Spleen","F98 glioma bearing rats; 10 mg 10B/kg, 1 h",14.34 µg 10B/g
same,"10B concentration, Tumor","F98 glioma bearing rats; 10 mg 10B/kg, 1 h",1.42 µg 10B/g and 1.42 ± 0.28 µg 10B/g
same,T/Bl (tumor to blood ratio),"F98 glioma bearing rats; 10 mg 10B/kg, 1 h",0.31
same,T/Br (tumor to normal contralateral brain ratio),"F98 glioma bearing rats; 10 mg 10B/kg, 1 h",5.99
same,"10B concentration, Blood","F98 glioma bearing rats; 10 mg 10B/kg, 3 h",1.26 µg 10B/g
same,"10B concentration, Contralateral brain","F98 glioma bearing rats; 10 mg 10B/kg, 3 h",0.09 µg 10B/g
same,"10B concentration, Heart","F98 glioma bearing rats; 10 mg 10B/kg, 3 h",0.29 µg 10B/g
same,"10B concentration, Ipsilateral brain","F98 glioma bearing rats; 10 mg 10B/kg, 3 h",0.10 µg 10B/g
same,"10B concentration, Liver","F98 glioma bearing rats; 10 mg 10B/kg, 3 h",4.13 µg 10B/g
same,"10B concentration, Lung","F98 glioma bearing rats; 10 mg 10B/kg, 3 h",0.74 µg 10B/g
same,"10B concentration, Muscle","F98 glioma bearing rats; 10 mg 10B/kg, 3 h",0.19 µg 10B/g
same,"10B concentration, Skin","F98 glioma bearing rats; 10 mg 10B/kg, 3 h",0.45 µg 10B/g
same,"10B concentration, Spleen","F98 glioma bearing rats; 10 mg 10B/kg, 3 h",16.07 µg 10B/g
same,"10B concentration, Tumor","F98 glioma bearing rats; 10 mg 10B/kg, 3 h",0.85 µg 10B/g
same,T/Bl (tumor to blood ratio),"F98 glioma bearing rats; 10 mg 10B/kg, 3 h",0.69
same,T/Br (tumor to normal contralateral brain ratio),"F98 glioma bearing rats; 10 mg 10B/kg, 3 h",9.52
same,"10B concentration, Blood","F98 glioma bearing rats; 20 mg 10B/kg, 1 h",8.76 µg 10B/g
same,"10B concentration, Contralateral brain","F98 glioma bearing rats; 20 mg 10B/kg, 1 h",0.24 µg 10B/g
same,"10B concentration, Heart","F98 glioma bearing rats; 20 mg 10B/kg, 1 h",2.10 µg 10B/g
same,"10B concentration, Ipsilateral brain","F98 glioma bearing rats; 20 mg 10B/kg, 1 h",0.31 µg 10B/g
same,"10B concentration, Liver","F98 glioma bearing rats; 20 mg 10B/kg, 1 h",10.25 µg 10B/g
same,"10B concentration, Lung","F98 glioma bearing rats; 20 mg 10B/kg, 1 h",6.11 µg 10B/g
same,"10B concentration, Muscle","F98 glioma bearing rats; 20 mg 10B/kg, 1 h",2.35 µg 10B/g
same,"10B concentration, Skin","F98 glioma bearing rats; 20 mg 10B/kg, 1 h",3.56 µg 10B/g
same,"10B concentration, Spleen","F98 glioma bearing rats; 20 mg 10B/kg, 1 h",10.30 µg 10B/g
same,"10B concentration, Tumor","F98 glioma bearing rats; 20 mg 10B/kg, 1 h",2.96 µg 10B/g
same,T/Bl (tumor to blood ratio),"F98 glioma bearing rats; 20 mg 10B/kg, 1 h",0.34
same,T/Br (tumor to normal contralateral brain ratio),"F98 glioma bearing rats; 20 mg 10B/kg, 1 h",13.21
same,"10B concentration, Blood","F98 glioma bearing rats; 20 mg 10B/kg, 3 h",1.54 µg 10B/g
same,"10B concentration, Contralateral brain","F98 glioma bearing rats; 20 mg 10B/kg, 3 h",0.09 µg 10B/g
same,"10B concentration, Heart","F98 glioma bearing rats; 20 mg 10B/kg, 3 h",0.39 µg 10B/g
same,"10B concentration, Ipsilateral brain","F98 glioma bearing rats; 20 mg 10B/kg, 3 h",0.14 µg 10B/g
same,"10B concentration, Liver","F98 glioma bearing rats; 20 mg 10B/kg, 3 h",5.40 µg 10B/g
same,"10B concentration, Lung","F98 glioma bearing rats; 20 mg 10B/kg, 3 h",1.37 µg 10B/g
same,"10B concentration, Muscle","F98 glioma bearing rats; 20 mg 10B/kg, 3 h",0.24 µg 10B/g
same,"10B concentration, Skin","F98 glioma bearing rats; 20 mg 10B/kg, 3 h",0.57 µg 10B/g
same,"10B concentration, Spleen","F98 glioma bearing rats; 20 mg 10B/kg, 3 h",8.44 µg 10B/g
same,"10B concentration, Tumor","F98 glioma bearing rats; 20 mg 10B/kg, 3 h",1.47 µg 10B/g
same,T/Bl (tumor to blood ratio),"F98 glioma bearing rats; 20 mg 10B/kg, 3 h",1.12
same,T/Br (tumor to normal contralateral brain ratio),"F98 glioma bearing rats; 20 mg 10B/kg, 3 h",21.07
same,10B concentration in blood,"F98 glioma bearing rats; 30 mg 10B/kg, 1 h",14.21 ± 3.17 µg/mL
same,"10B concentration, Blood","F98 glioma bearing rats; 30 mg 10B/kg, 1 h",14.21 µg 10B/g
same,"10B concentration, Contralateral brain","F98 glioma bearing rats; 30 mg 10B/kg, 1 h",0.45 µg 10B/g
same,"10B concentration, Heart","F98 glioma bearing rats; 30 mg 10B/kg, 1 h",3.45 µg 10B/g
same,"10B concentration, Ipsilateral brain","F98 glioma bearing rats; 30 mg 10B/kg, 1 h",0.63 µg 10B/g
same,"10B concentration, Liver","F98 glioma bearing rats; 30 mg 10B/kg, 1 h",10.33 ± 2.61 µg 10B/g and 10.33 µg 10B/g
same,"10B concentration, Lung","F98 glioma bearing rats; 30 mg 10B/kg, 1 h",9.27 µg 10B/g
same,"10B concentration, Muscle","F98 glioma bearing rats; 30 mg 10B/kg, 1 h",2.26 µg 10B/g
same,"10B concentration, Skin","F98 glioma bearing rats; 30 mg 10B/kg, 1 h",7.25 µg 10B/g
same,"10B concentration, Spleen","F98 glioma bearing rats; 30 mg 10B/kg, 1 h",3.77 µg 10B/g
same,"10B concentration, Tumor","F98 glioma bearing rats; 30 mg 10B/kg, 1 h",6.65 µg 10B/g and 6.65 ± 0.25 µg 10B/g
same,T/Bl (tumor to blood ratio),"F98 glioma bearing rats; 30 mg 10B/kg, 1 h",0.49
same,T/Br (tumor to normal contralateral brain ratio),"F98 glioma bearing rats; 30 mg 10B/kg, 1 h",15.27
same,10B concentration in blood,"F98 glioma bearing rats; 30 mg 10B/kg, 3 h",2.35 ± 1.37 µg/mL
same,"10B concentration, Blood","F98 glioma bearing rats; 30 mg 10B/kg, 3 h",2.35 µg 10B/g
same,"10B concentration, Contralateral brain","F98 glioma bearing rats; 30 mg 10B/kg, 3 h",0.14 µg 10B/g
same,"10B concentration, Heart","F98 glioma bearing rats; 30 mg 10B/kg, 3 h",0.56 µg 10B/g
same,"10B concentration, Ipsilateral brain","F98 glioma bearing rats; 30 mg 10B/kg, 3 h",0.35 µg 10B/g
same,"10B concentration, Liver","F98 glioma bearing rats; 30 mg 10B/kg, 3 h",4.19 ± 1.79 µg 10B/g and 4.19 µg 10B/g
same,"10B concentration, Lung","F98 glioma bearing rats; 30 mg 10B/kg, 3 h",2.26 µg 10B/g
same,"10B concentration, Muscle","F98 glioma bearing rats; 30 mg 10B/kg, 3 h",0.32 µg 10B/g
same,"10B concentration, Skin","F98 glioma bearing rats; 30 mg 10B/kg, 3 h",1.06 µg 10B/g
same,"10B concentration, Spleen","F98 glioma bearing rats; 30 mg 10B/kg, 3 h",5.68 µg 10B/g
same,"10B concentration, Tumor","F98 glioma bearing rats; 30 mg 10B/kg, 3 h",2.91 µg 10B/g
same,T/Bl (tumor to blood ratio),"F98 glioma bearing rats; 30 mg 10B/kg, 3 h",1.58
same,T/Br (tumor to normal contralateral brain ratio),"F98 glioma bearing rats; 30 mg 10B/kg, 3 h",23.09
same,clearance from normal tissues,F98 glioma bearing rats; 1 vs 3 h,rapid clearance from normal tissues
same,"10B Concentrations, Brain (Table 1)","F98 glioma bearing rats; 1 h, used for dose estimation",0.3 μg 10B/g
same,"10B Concentrations, Tumor (Table 1)","F98 glioma bearing rats; 1 h, used for dose estimation",1.4 μg 10B/g
same,IC50,F98 rat glioma cells,10.4 mM
